Values joined by “and” are separate entries in the source; they are usually repeats but may differ in a detail not shown here. Equal entries are not always repeated.
Columns and labels:
[1] = instrument: DT, single field, calibrated with ESI Low Concentration Tuning Mix (Agilent)
[2] = instrument: TW, calibrated with polyalanine and drug standards

collision cross section (N2) ([1]; [M+Na]+)	collision cross section (N2) ([1]; [M-H]-) [Å²]	collision cross section (N2) ([2]; [M+H]+)	Structure (SMILES)	further results
134.6 Å²	–	–	OC1OC[C@H](O)[C@H](O)[C@H]1O (stereo not given in full) [ARABINOSE]	–
173.3 Å²	158.3	–	O=c1[nH]c(=O)c2ncn([C@@H]3O[C@H](CO)[C@@H](O)[C@H]3O)c2[nH]1 [XANTHOSINE]	collision cross section (N2) ([1]; [M+H]+): 162 Å²; collision cross section (N2) ([1]; [M+K]+): 173 Å²; collision cross section (N2) ([1]; [M+Na-2H]-): 161.9 Å²
172.4 Å²	166.9	–	CSC[C@H]1O[C@@H](n2cnc3c(N)ncnc32)[C@H](O)[C@@H]1O [METHYLTHIOADENOSINE]	collision cross section (N2) ([1]; [M+H]+): 162.5 Å² and 170.7 Å²
149.6 Å²	142	–	O=C(O)CNC(=O)c1ccccc1 [HIPPURATE]	–
–	118	–	Nc1ccccc1O [2-AMINOPHENOL]	collision cross section (N2) ([1]; [M+H]+): 118.3 Å² and 124.8 Å²
135.2 Å²	–	–	OC1OC[C@@H](O)[C@@H](O)[C@H]1O (stereo not given in full) [RIBOSE]	–
202.2 Å²	202.2	–	C[C@H](CCC(=O)NCC(=O)O)[C@H]1CC[C@H]2[C@@H]3[C@H](O)C[C@@H]4C[C@H](O)CC[C@]4(C)[C@H]3C[C@H](O)[C@]12C [GLYCOCHOLATE]	collision cross section (N2) ([1]; [M+H]+): 199.7 Å²; collision cross section (N2) ([1]; [M+K]+): 208 Å²
–	127.5	–	N[C@@H](COP(=O)(O)O)C(=O)O [PHOSPHOSERINE]	collision cross section (N2) ([1]; [M+Na-2H]-): 135.1 Å²
–	123	–	NCCOP(=O)(O)O [ETHANOLAMINE PHOSPHATE]	–
–	137.4	–	O=C(O)C(O)c1ccc(O)c(O)c1 (stereo not given) [3,4 DIHYDROXYMANDELATE]	–
–	–	–	NCCC[C@H](N)C(=O)O [L-ORNITHINE]	collision cross section (N2) ([1]; [M+H]+): 127.7 Å²
142.9 Å²	131.4	–	OC[C@@H](O)[C@@H](O)[C@H](O)[C@@H](O)CO [SORBITOL]	–
208.9 Å²	197.3	–	OC[C@H]1O[C@H](OC[C@H]2O[C@H](O[C@]3(CO)O[C@H](CO)[C@@H](O)[C@@H]3O)[C@H](O)[C@@H](O)[C@@H]2O)[C@H](O)[C@@H](O)[C@H]1O [RAFFINOSE]	–
142.6 Å²	–	–	C[C@@H]1OC(O)[C@H](O)[C@H](O)[C@H]1O (stereo not given in full) [RHAMNOSE]	–
–	127.8	–	O=C1O[C@H]([C@@H](O)CO)C(=O)C1=O [DEHYDROASCORBATE]	–
148.4 Å²	137.1	–	O=C(O)Cc1c[nH]c2ccc(O)cc12 [5-HYDROXYINDOLEACETATE]	collision cross section (N2) ([1]; [M+H]+): 140.9 Å²
–	134.2	–	NC[C@H](O)c1ccc(O)c(O)c1 [NORADRENALINE]	collision cross section (N2) ([1]; [M-H2O+H]+): 137.2 Å²
133 Å²	–	–	CC(=O)NCC(=O)O [N-ACETYLGLYCINE]	–
218.1 Å²	223.9	–	CC(=O)NC1C(OP(=O)(O)OP(=O)(O)OCC2OC(n3ccc(=O)[nH]c3=O)C(O)C2O)OC(CO)C(O)C1O (stereo not given) [URIDINE DIPHOSPHATE-N-ACETYLGALACTOSAMINE]	collision cross section (N2) ([1]; [M+H]+): 216.2 Å²; collision cross section (N2) ([1]; [M+Na-2H]-): 228.2 Å²

collision cross section (N2) ([1]; [M+Na]+)	collision cross section (N2) ([1]; [M-H]-) [Å²]	collision cross section (N2) ([2]; [M+H]+)	Structure (SMILES)	further results
179.9 Å²	174.2	–	Nc1ccn([C@@H]2O[C@H](COP(=O)(O)OP(=O)(O)O)[C@@H](O)[C@H]2O)c(=O)n1 [CYTIDINE DIPHOSPHATE]	collision cross section (N2) ([1]; [M+H]+): 175.6 Å²; collision cross section (N2) ([1]; [M+Na-2H]-): 176.3 Å²
139.4 Å² and 143.3 Å²	–	–	OCC1(O)OC[C@H](O)[C@@H](O)[C@@H]1O (stereo not given in full) [SORBOSE]	–
255.5 Å²	244.4	–	CC(C)(COP(=O)(O)OP(=O)(O)OC[C@H]1O[C@@H](n2cnc3c(N)ncnc32)[C@H](O)[C@@H]1OP(=O)(O)O)[C@@H](O)C(=O)NCCC(=O)NCCS [COENZYME A]	collision cross section (N2) ([1]; [M+H]+): 241.4 Å²; collision cross section (N2) ([1]; [M+Na-2H]-): 246.2 Å²
–	–	–	Cn1cncc1CCN [3-METHYLHISTAMINE]	collision cross section (N2) ([1]; [M+H]+): 123.8 Å²
142.8 Å²	129	–	Cc1ncc(CO)c(C=O)c1O [PYRIDOXAL]	collision cross section (N2) ([1]; [M+H]+): 131.4 Å²
–	246.7	–	NC(=O)C1=CN([C@@H]2O[C@H](COP(=O)(O)OP(=O)(O)OC[C@H]3O[C@@H](n4cnc5c(N)ncnc54)[C@H](OP(=O)(O)O)[C@@H]3O)[C@@H](O)[C@H]2O)C=CC1 [NADPH]	collision cross section (N2) ([1]; [M+Na-H]+): 240.5 Å²; collision cross section (N2) ([1]; [M+]+): 232.2 Å²
211 Å²	–	–	C[C@]12CCC(=O)C=C1CC[C@@H]1[C@@H]2CC[C@@]2(C)[C@H]1CC[C@]2(O)C(=O)CO [CORTEXOLONE]	collision cross section (N2) ([1]; [M+H]+): 187.7 Å²
204.4 Å²	197.5	–	CCCCCCCC/C=C\CCCCCCCCCCCCCC(=O)[O-] [NERVONATE]	–
145.1 Å²	127.7	–	CSc1ncnc2nc[nH]c12 [THIOPURINE S-METHYLETHER]	collision cross section (N2) ([1]; [M+H]+): 129.8 Å²
–	–	–	C[N+](C)(C)CCCC(=O)[O-] [DEOXYCARNITINE]	collision cross section (N2) ([1]; [M+H]+): 129.7 Å²
158.3 Å²	148.7	–	O=P(O)(O)OC1O[C@H](CO)[C@@H](O)[C@H](O)[C@H]1O (stereo not given in full) [GLUCOSE 1-PHOSPHATE]	–
161.6 Å²	154.1	–	Cc1cn([C@H]2C[C@H](O)[C@@H](CO)O2)c(=O)[nH]c1=O [THYMIDINE]	–
–	–	130.6 Å²	CCC(C)C(NC)C(=O)O (stereo not given) [N-METHYLISOLEUCINE]	–
–	–	143.1 Å²	COc1ccc2c(=O)c(CC(=O)O)coc2c1 [ANHYDROBRAZILIC ACID]	–
–	–	169.1 Å²	COc1ccc([C@@H]2CC(=O)c3c(O)cc(O)cc3O2)cc1O [HESPERETIN]	–
–	–	117.2 Å² and 117.1 Å²	Cn1cc[nH]c1=S [METHIMAZOLE]	–
–	–	181.1 Å²	CC1(C)OC(=O)C(OCC2CC2)=C1c1ccc(S(C)(=O)=O)cc1 [FIROCOXIB]	–
–	–	199.4 Å²	CC(=O)O[C@]1(C(C)=O)CC[C@H]2[C@@H]3C=C(Cl)C4=CC(=O)[C@@H]5C[C@@H]5[C@]4(C)[C@H]3CC[C@@]21C [CYPROTERONE ACETATE]	–
–	–	255.6 Å²	CC(C)c1c(O)c(-c2cc3c(c(C(C)C)c2O)CCC2C(C)(C)CCC[C@]32C)cc2c1CCC1C(C)(C)CCC[C@]21C (stereo not given in full) [PODOTOTARIN]	–

collision cross section (N2) ([1]; [M+Na]+)	collision cross section (N2) ([1]; [M-H]-) [Å²]	collision cross section (N2) ([2]; [M+H]+)	Structure (SMILES)	further results
–	–	177.5 Å²	CN1CCN(C2=c3ccccc3=Nc3ccc(Cl)cc3N2)CC1 [CLOZAPINE]	–
–	–	212.5 Å²	CCCCC(=O)O[C@]1(C(=O)CO)CC[C@H]2[C@@H]3CCC4=CC(=O)CC[C@]4(C)[C@H]3[C@@H](O)C[C@@]21C [HYDROCORTISONE VALERATE]	–
–	–	–	CC(=O)Oc1cccc(C(=O)O)c1OC(C)=O [DIPYROCETYL]	collision cross section (N2) ([2]; [M+Na]+): 150 Å²
–	–	178.6 Å²	C#C[C@]1(O)CC[C@H]2[C@@H]3CCC4=CC(=O)CC[C@@H]4[C@H]3CC[C@@]21CC [NORGESTREL]	–
–	–	155.1 Å²	Cn1cnc([N+](=O)[O-])c1Sc1ncnc2nc[nH]c12 [AZATHIOPRINE]	–
–	–	–	O=C(N[C@H](CO)[C@H](O)c1ccc([N+](=O)[O-])cc1)C(Cl)Cl [CHLORAMPHENICOL]	collision cross section (N2) ([2]; [M+H-H2O]+): 163.9 Å²
–	–	181.8 Å²	O[C@@H](c1cc(C(F)(F)F)nc2c(C(F)(F)F)cccc12)[C@H]1CCCCN1 [MEFLOQUINE]	–
–	–	179 Å²	COc1ccc2c(c1)c(CC(=O)O)c(C)n2C(=O)c1ccc(Cl)cc1 [INDOMETHACIN]	–
–	–	171.2 Å²	CCN(CC)CCNC(=O)COc1ccc(OC)cc1 [MEFEXAMIDE]	–
–	–	184.2 Å² and 170 Å²	CCn1cc(C(=O)O)c(=O)c2cc(F)c(N3CCNCC3)cc21 [NORFLOXACIN]	–
–	–	159.1 Å²	COc1ccc(-c2oc3ccccc3c(=O)c2OC)cc1 [3,4'-DIMETHOXYFLAVONE]	–
–	–	162.1 Å²	COc1ccc(/C=C/C(=O)c2cc(O)ccc2O)cc1 [2',5'-DIHYDROXY-4-METHOXYCHALCONE]	–
–	–	139.9 Å²	COc1c2occc2cc2ccc(=O)oc12 [METHOXSALEN]	–
–	–	219.8 Å²	CCN(CC)CCOc1ccc2c(c1)C(=O)c1cc(OCCN(CC)CC)ccc1-2 [TILORONE]	–
–	–	145.9 Å²	CC1=CC2C(C(C)C)CCC(C)(O)C2CC1 (stereo not given) [CADIN-4-EN-10-OL]	–
–	–	152.6 Å²	CN1CCCN=C1/C=C/c1cccc(O)c1 [OXANTEL]	–
–	–	172.6 Å²	CN(CCOc1ccc(CC2SC(=O)NC2=O)cc1)c1ccccn1 (stereo not given) [ROSIGLITAZONE]	–
–	–	208.3 Å²	CC(C)CCC[C@@H](C)[C@H]1CC[C@H]2[C@@H]3C=CC4=CC(=O)CC[C@]4(C)[C@H]3CC[C@]12C [CHOLESTA-4,6-DIEN-3-ONE]	–
–	–	169.3 Å²	CC(=O)OCC1(O)CC23CCC4c5ccoc5CCC4(C)C2CCC1C3 (stereo not given) [CAFESTOL ACETATE]	–

Structure (SMILES)	collision cross section (N2) ([1]; [M+Na]+)	collision cross section (N2) ([1]; [M-H]-) [Å²]	collision cross section (N2) ([2]; [M+H]+)	further results
NCCCNCCCN [NORSPERMIDINE]	132.4 Å²	–	–	collision cross section (N2) ([1]; [M+H]+): 127.6 Å²

From the C3SDB collision cross section collection
